A short description of this series: Melting of Form A0 in dry N2 (heated to 140° C., cooled to room temperature). The class given is physicochemical. The following applies: heated to 140° C. in dry N2 atmosphere, then cooled to room temperature and crushed. The method, then:
A. The amorphous form of funapide was generated by melting Form A0 of funapide in a dry N2 atmosphere optionally using the VT stage on the XRPD unit. The sample was heated to 140° C. and then cooled to room temperature and crushed. […] The sample was confirmed to be the amorphous form of funapide by XRPD.

`O=C1N(Cc2ccc(C(F)(F)F)o2)c2ccccc2[C@]12COc1cc3c(cc12)OCO3` [Form A0 of funapide]: the decomposition on melting result was “No decomposition was observed”.

The values above are taken from US10513526B2, “Solid state forms of spiro-oxindole compounds” (Xenon Pharmaceuticals Inc., priority 2016, dated 2019).
